Data from PubChem BioAssay (NCI).
Several values for one entry are separate records, joined by “and”; a condition that tells them apart may be missing. Equal values may be shown once.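 Where inhibition never reached the appropriate level, the endpoint shown equals the highest concentration tested. Otherwise, values were interpolated linearly from a five-concentration, 48-hour dose response in 96-well plates. At the GI50, growth is halved. The concentration for full growth arrest is given as TGI.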

Tests used:
Assay in all cases: inhibition of tumour cell growth, NCI panel, 48 h
SN12C renal = tested on: SN12C renal
A498 renal = tested on: A498 renal
SF-539 CNS = tested on: SF-539 CNS
786-0 renal = tested on: 786-0 renal
NCI-H522 lung = tested on: NCI-H522 lung
HCT-15 colon = tested on: HCT-15 colon
CCRF-CEM leukemia = tested on: CCRF-CEM leukemia
RPMI-8226 leukemia = tested on: RPMI-8226 leukemia
NCI-H23 lung = tested on: NCI-H23 lung
OVCAR-5 ovarian = tested on: OVCAR-5 ovarian

Row | Structure (SMILES) | GI50 (SN12C renal) | TGI (SN12C renal) | GI50 (A498 renal) | TGI (A498 renal) | GI50 (SF-539 CNS) | TGI (SF-539 CNS) | GI50 (786-0 renal) | TGI (786-0 renal) | GI50 (NCI-H522 lung) | TGI (NCI-H522 lung) | GI50 (HCT-15 colon) | TGI (HCT-15 colon) | GI50 (CCRF-CEM leukemia) | TGI (CCRF-CEM leukemia) | GI50 (RPMI-8226 leukemia) | TGI (RPMI-8226 leukemia) | GI50 (NCI-H23 lung) | TGI (NCI-H23 lung) | GI50 (OVCAR-5 ovarian) | TGI (OVCAR-5 ovarian)
1 | Nc1c(C(=O)c2cccc(CCC3(O)CCCC3)c2)cnn1-c1ccc(F)cc1 | 16.2 µM | > 25 µM | 3.62 µM | > 25 µM | 18.2 µM | > 25 µM | > 20.4 µM | > 25 µM | > 19.4 µM | > 25 µM | 18.7 µM | > 25 µM | 18.8 µM | > 25 µM | 9.23 µM | > 25 µM | 14.6 µM | > 25 µM | > 25 µM | > 25 µM
2 | S=C=NCc1ccccc1 | – | > 36.8 µM | – | 14 µM | – | 3.79 µM | – | 1.65 µM | – | 4.45 µM | – | 11.1 µM | – | 2.48 µM | – | > 100 µM | – | 15.2 µM | – | 29.8 µM
3 | O=C(O)CCCSc1nc2ccccc2s1 | – | > 100 µM | – | > 100 µM | – | > 100 µM | – | > 100 µM | – | > 100 µM | – | > 100 µM | – | > 100 µM | – | > 100 µM | – | > 100 µM | – | > 100 µM
4 | CO[C@H]1C[C@@H]2CC[C@@H](C)[C@@](O)(O2)C(=O)C(=O)N2CCCC[C@H]2C(=O)O[C@H]([C@H](C)C[C@@H]2CC[C@@H](OP(C)(C)=O)[C@H](OC)C2)CC(=O)[C@H](C)/C=C(\C)[C@@H](O)[C@@H](OC)C(=O)[C@H](C)C[C@H](C)/C=C/C=C/C=C/1C | 11 µM | 25.8 µM | < 0.01 µM | 15.5 µM | < 0.0234 µM | 21.7 µM | 8.92 µM | 22.7 µM | – | 19.9 µM | 1.21 µM | 29.5 µM | 8.17 µM | 52.4 µM | 8.49 µM | 40.6 µM | 11.1 µM | 29.1 µM | 11.4 µM | 27.6 µM
5 | CCC[CH2][Sn]([CH2]CCC)([O]C(=O)c1cc(OC)c(OC)cc1OC)[O]C(=O)c1cc(OC)c(OC)cc1OC | 1.52 µM | 3.29 µM | 1.48 µM | 3.21 µM | 1.02 µM | 2.23 µM | 1.41 µM | 2.78 µM | 0.373 µM | 1.14 µM | 1.26 µM | 2.92 µM | 0.295 µM | 1.11 µM | 0.499 µM | 2.96 µM | 0.674 µM | 1.96 µM | 2.27 µM | 4.33 µM
6 | CC1(C)CC(=O)c2c(ccc(C(=O)C[C@H](N)CO)c2N)O1 | – | 17.5 µM and > 33.3 µM | 2.86 µM and 6.73 µM | 17.5 µM and > 33.3 µM | – | 17.5 µM and 7.43 µM | > 17.5 µM and 5.1 µM | > 33.3 µM | 2.57 µM and 4.58 µM | 17.5 µM | 0.768 µM and 0.114 µM | 17.5 µM and 9.09 µM | – | 17.5 µM and > 33.3 µM | 4.62 µM | 17.5 µM | 6.42 µM and 0.733 µM | 17.5 µM and > 33.3 µM | > 33.3 µM | > 33.3 µM
7 | Cc1ccccc1NC(=O)C1C(=O)N(c2ccccc2C)C(=O)/C1=N\N (stereo not given) | – | > 100 µM | – | > 100 µM | – | > 100 µM | – | > 100 µM | – | > 100 µM | – | > 100 µM | – | > 100 µM | – | > 100 µM | – | > 100 µM | – | > 100 µM
8 | CN(C)C(=O)c1cc2cnc(Nc3ccc(-c4csc5c(=O)cc(N6CCNCC6)oc45)cc3)nc2n1C1CCCC1 | 0.557 µM | 16.8 µM | 1.24 µM | 3.01 µM | 1.15 µM | 2.43 µM | 0.535 µM | 1.93 µM | 0.473 µM | 2.55 µM | 1.84 µM | 5.79 µM | 0.433 µM | – | 0.453 µM | 2.74 µM | 0.995 µM | 2.93 µM | 0.491 µM | 5.11 µM
